Data from patent US11884660B2, “Substituted oxopyridine derivative” (Bayer Pharma Aktiengesellschaft, priority 2018, dated 2024).
Counter-ions that a name gives are not always drawn.

How the values were obtained:
human factor XIa = human factor XIa (Homo sapiens (Human), UniProt P03951); experiment: Measurement of FXIa inhibition (fluorogenic substrate Boc-Glu(OBzl)-Ala-Arg-AMC); assay type: biochemical; conditions: human factor XIa 0.45 nM; 15 min preincubation; 30 min at 22° C.; some as mean values from multiple determinations
Experimental: a.2) Measurement of FXIa Inhibition
(§1) The factor XIa inhibition of the substances according to the invention is determined using a biochemical test system which utilizes the reaction of a peptidic factor XIa substrate to determine the enzymatic activity of human factor XIa. Here, factor XIa cleaves from the peptic factor XIa substrate the C-terminal aminomethylcoumarin (AMC), the fluorescence of which is measured. The determinations are carried out in microtitre plates.
Test substances are dissolved in dimethyl sulphoxide and serially diluted in dimethyl sulphoxide (3000 μM to 0.0078 μM; resulting final concentrations in the test: 50 μM to 0.00013 μM). In each case 1 μl of the diluted substance solutions is placed into the wells of white microtitre plates from Greiner (384 wells). 20 μl of assay buffer (50 mM of Tris/HCl pH 7.4; 100 mM of sodium chloride; 5 mM of calcium chloride; 0.1% of bovine serum albumin) and 20 μl of factor XIa from Kordia (0.45 nM in assay buffer) are then added successively. After 15 min of incubation, the enzyme reaction is started by addition of 20 μl of the factor XIa substrate Boc-Glu(OBzl)-Ala-Arg-AMC dissolved in assay buffer (10 μM in assay buffer) from Bachem, the mixture is incubated at room temperature (22° C.) for 30 min and fluorescence is then measured (excitation: 360 nm, emission: 460 nm). The measured emissions of the test batches with test substance are compared to those of control batches without test substance (only dimethyl sulphoxide instead of test substance in dimethyl sulphoxide), and IC50 values are calculated from the concentration/activity relationships. Activity data from this test are listed in Table B below (some as mean values from multiple independent individual determinations): […]

human plasma kallikrein = human plasma kallikrein (Homo sapiens (Human), UniProt P03952); experiment: Determination of the plasma kallikrein activity (fluorogenic substrate H-Pro-Phe-Arg-AMC); assay type: biochemical; conditions: human plasma kallikrein 0.6 nM; 15 min preincubation; 30 min at 22° C.; some as mean values from multiple determinations
Experimental: a.1) Determination of the Plasma Kallikrein Activity
as §1, with “To determine the plasma kallikrein” for “The factor XIa”, “invention,” for “invention is determined using”, “system is used” for “system”, “plasma kallikrein” for “factor XIa”, “plasma kallikrein.” for “factor XIa.”
Test substances are dissolved in dimethyl sulphoxide and serially diluted in dimethyl sulphoxide (3000 μM to 0.0078 μM; resulting final concentrations in the test: 50 μM to 0.00013 μM). In each case 1 μl of the diluted substance solutions is placed into the wells of white microtitre plates from Greiner (384 wells). 20 μl of assay buffer (50 mM Tris/HCl pH 7.4; 100 mM sodium chloride solution; 5 mM of calcium chloride solution; 0.1% of bovine serum albumin) and 20 μl of plasma kallikrein from Kordia (0.6 nM in assay buffer) are then added successively. After 15 min of incubation, the enzyme reaction is started by addition of 20 μl of the substrate H-Pro-Phe-Arg-AMC dissolved in assay buffer (10 μM in assay buffer) from Bachem, the mixture is incubated at room temperature (22° C.) for 30 min and fluorescence is then measured (excitation: 360 nm, emission: 460 nm). The measured emissions of the test batches with test substance are compared to those of control batches without test substance (only dimethyl sulphoxide instead of test substance in dimethyl sulphoxide), and IC50 values are calculated from the concentration/activity relationships. Activity data from this test are listed in Table A below (some as mean values from multiple independent individual determinations): […]

Sequence of human plasma kallikrein (P03952 391-638): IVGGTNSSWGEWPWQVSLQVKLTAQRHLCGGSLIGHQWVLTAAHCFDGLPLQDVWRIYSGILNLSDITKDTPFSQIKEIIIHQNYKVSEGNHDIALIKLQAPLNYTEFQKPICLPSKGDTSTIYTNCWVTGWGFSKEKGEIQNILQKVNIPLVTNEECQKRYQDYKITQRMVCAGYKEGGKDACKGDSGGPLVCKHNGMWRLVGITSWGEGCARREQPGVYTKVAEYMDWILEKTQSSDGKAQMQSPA
Sequence of human plasma kallikrein (P03952 20-390 partner): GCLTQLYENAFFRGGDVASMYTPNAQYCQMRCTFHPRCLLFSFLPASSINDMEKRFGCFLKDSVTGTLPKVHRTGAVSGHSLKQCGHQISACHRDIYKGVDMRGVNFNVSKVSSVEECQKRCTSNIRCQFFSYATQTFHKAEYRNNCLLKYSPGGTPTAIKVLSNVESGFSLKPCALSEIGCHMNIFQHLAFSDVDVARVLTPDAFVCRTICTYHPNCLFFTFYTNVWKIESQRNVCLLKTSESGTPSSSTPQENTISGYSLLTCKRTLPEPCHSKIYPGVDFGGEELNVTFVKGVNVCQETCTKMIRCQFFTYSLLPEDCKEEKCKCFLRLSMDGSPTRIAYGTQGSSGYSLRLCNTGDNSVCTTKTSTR
Sequence of human factor XIa (P03951 388-625): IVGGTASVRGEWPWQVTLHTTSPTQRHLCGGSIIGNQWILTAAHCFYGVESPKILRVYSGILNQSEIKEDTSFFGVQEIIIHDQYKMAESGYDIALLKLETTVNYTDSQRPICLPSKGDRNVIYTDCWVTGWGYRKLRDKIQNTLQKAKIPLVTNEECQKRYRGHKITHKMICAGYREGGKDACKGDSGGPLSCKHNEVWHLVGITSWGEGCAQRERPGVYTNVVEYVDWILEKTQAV
Sequence of human factor XIa (P03951 19-387 partner): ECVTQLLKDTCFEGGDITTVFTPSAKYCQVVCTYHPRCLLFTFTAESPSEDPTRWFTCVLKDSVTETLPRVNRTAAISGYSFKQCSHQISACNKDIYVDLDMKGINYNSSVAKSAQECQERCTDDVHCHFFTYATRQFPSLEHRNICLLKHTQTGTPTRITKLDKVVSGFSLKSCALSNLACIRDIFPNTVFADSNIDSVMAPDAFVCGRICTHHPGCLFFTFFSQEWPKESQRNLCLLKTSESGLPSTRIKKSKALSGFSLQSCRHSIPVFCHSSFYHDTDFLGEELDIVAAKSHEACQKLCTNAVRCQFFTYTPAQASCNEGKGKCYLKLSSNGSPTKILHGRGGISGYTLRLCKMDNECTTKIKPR

| IC50 (human factor XIa) [nM] | IC50 (human plasma kallikrein) [nM] | Compound |
| --- | --- | --- |
| > 10000 | 5.6 | COc1cn(C(C(=O)Nc2ccn3ncc(C(N)=O)c3c2)C(C)CCCN)c(=O)cc1-c1cc(Cl)ccc1C#N (racemic) [Example 1, 5-({6-Amino-2-[4-(5-chloro-2-cyanophenyl)-5-methoxy-2-oxopyridin-1(2H)-yl]-3-methyl-hexanoyl}amino)pyrazolo[1,5-a]pyridine-3-carboxamidetrifluoroacetate] |
| > 2000 | 1.8 | COc1cn([C@H](C(=O)Nc2ccn3ncc(C(N)=O)c3c2)C(C)CCCN)c(=O)cc1-c1cc(Cl)ccc1C#N (single isomer, unassigned) [Example 2, trifluoroacetate] |
| > 2000 | 2.1 | COc1cn([C@H](C(=O)Nc2ccn3ncc(C(N)=O)c3c2)C(C)CCCN)c(=O)cc1-c1cc(Cl)ccc1C#N (single isomer, unassigned) [Example 3, trifluoroacetate] |
